The values below come from patent US20040029891A1, “Use of PDE5 inhibitors in the treatment of polycystic ovary syndrome” (Pfizer Inc., priority 2002, published 2004).

One assay has as its system cattle. In words: Uterine horn histology (endometrial epithelial thickness) in cattle. It counts as in vivo. The conditions noted are these: intra-vaginally twice daily, 30 days, relative to control animals (FIG. 4). How it is done: Oestrous was synchronised using two intramuscular injections of PGF2a (Lutalyse™) administered 11 days apart.
The pyrazolopyrimidinone PDE V inhibitor was administered intra-vaginally twice daily from day −3 of oestrus until day 6 of the following oestrus (30 days in total). Blood samples were collected daily, plasma was prepared as soon as possible and stored at −20° C. and then analysed for progesterone.
At the completion of the study (ie day 6 of the second oestrous period) the cattle were euthanised and the reproductive tract collected. A cross section of the left and right horns of each uterus was collected and stored in 10% Formalin and ten analysed histologically.

Assay [1] concerns ob/ob mice. In words: Plasma glucose in ob/ob mice, 5 day dosing. It counts as in vivo, mouse. The conditions noted are these: summary in words. How it is done:
(§1) The selective pyrazolopyrimidinone PDEV inhibitor compounds to be tested were solubilized in 10% DMSO/0.1% pluronics and dosed via oral gavage using mouse oral feeding needles (20 gauge, Popper & Sons, Inc., New Hyde Park, N.Y.). A volume of 4 ml/kg weight was administered for each dose. Compounds were tested at doses ranging from 1-50 mg/kg. Alternatively, the test selective pyrazopyrimidinone PDEV inhibitor compound was administered in the drinking water and found to produce similar reductions in plasma glucose and triglycerides to the reductions observed for the same compound when administered by oral gavage. […]
(§2) Mice were allowed to acclimate to the Pfizer animal facilities for 1 week prior to the start of the study. On day one, retro-orbital blood samples were obtained and plasma glucose was determined as described hereinafter. […] Body weight was measured on days 1 and 5 of the study, and food consumption was assessed over the 5 day period.
(§3) On the morning of the last day of the study mice were dosed with test pyrazolopyrimidinone PDEV compound or vehicle at approximately 8:00 am. […] Plasma samples were stored at −80° C. until analyzed.
(§4) Plasma glucose and triglycerides were measured using the Alcyon Clinical Chemistry Analyzer (Abbott Laboratories, Abbott Park, Ill.) using kits supplied by Abbott. […]

For assay [2], the system named is ob/ob mice. The experiment in a line: Plasma triglycerides in ob/ob mice, 5 day dosing. It counts as in vivo, mouse. The conditions noted are these: summary in words. How it is done:
as §1, §2, §3, §4

Structures are written as SMILES.

On to `CCCOc1ccc(S(=O)(=O)N2CCN(CC)CC2)cc1-c1nc2c(CC)n(Cc3ccccn3)nc2c(=O)[nH]1` [PDE5 A, 3-ethyl-5-[5-(4-ethylpiperazin-1-ylsulphonyl)-2-n-propoxyphenyl]-2-(pyridin-2-yl)methyl-2,6-dihydro-7H-pyrazolo[4,3-d]pyrimidin-7-one], for which the endometrial epithelial thickness result in the assay on cattle is listed as “increases endometrial epithelial thickness”. For the molecule `CCCc1nn(C)c2c(=O)[nH]c(-c3cc(S(=O)(=O)N4CCN(C)CC4)ccc3OCC)nc12` [PDE5 C, 5-[2-ethoxy-5-(4-methyl-1-piperazinylsulphonyl)phenyl]-1-methyl-3-n-propyl-1,6-dihydro-7H-pyrazolo[4,3-d]pyrimidin-7-one], in the assay with ob/ob mice [1], the plasma glucose levels entry was “reduce”. The serum triglyceride levels result in the assay with ob/ob mice [2] is “reduce”.
